From patent publication US20090298820A1, “3-SUBSTITUTED-1H-PYRROLO[2,3-B]PYRIDINE AND 3-SUBSTITUTED-1H-PYRROLO[3,2-B]PYRIDINE COMPOUNDS, THEIR USE AS MTOR KINASE AND PI3 KINASE INHIBITORS, AND THEIR SYNTHESES” (Wyeth, priority 2008, published 2009)
Like-named read-outs stand apart in the source and are kept apart here.

Legend:
PI3Kα = PI3Kα (Homo sapiens, UniProt P42336); test: PI3K-alpha fluorescence polarization assay; type: biochemical; conditions: read-out: PI3Kα Median IC50
PI3Kγ = PI3Kγ (Homo sapiens, UniProt P48736); test: PI3K-gamma fluorescence polarization assay; type: biochemical; conditions: read-out: PI3Kγ Median IC50
mTOR = mTOR (Homo sapiens, UniProt P42345); test: mTOR enzyme assay (DELFIA format, His6-S6K substrate); type: biochemical
[1] = read-out: mTOR Kinase Median IC50

Sequence of PI3Kγ (P48736 whole entry, species assumed): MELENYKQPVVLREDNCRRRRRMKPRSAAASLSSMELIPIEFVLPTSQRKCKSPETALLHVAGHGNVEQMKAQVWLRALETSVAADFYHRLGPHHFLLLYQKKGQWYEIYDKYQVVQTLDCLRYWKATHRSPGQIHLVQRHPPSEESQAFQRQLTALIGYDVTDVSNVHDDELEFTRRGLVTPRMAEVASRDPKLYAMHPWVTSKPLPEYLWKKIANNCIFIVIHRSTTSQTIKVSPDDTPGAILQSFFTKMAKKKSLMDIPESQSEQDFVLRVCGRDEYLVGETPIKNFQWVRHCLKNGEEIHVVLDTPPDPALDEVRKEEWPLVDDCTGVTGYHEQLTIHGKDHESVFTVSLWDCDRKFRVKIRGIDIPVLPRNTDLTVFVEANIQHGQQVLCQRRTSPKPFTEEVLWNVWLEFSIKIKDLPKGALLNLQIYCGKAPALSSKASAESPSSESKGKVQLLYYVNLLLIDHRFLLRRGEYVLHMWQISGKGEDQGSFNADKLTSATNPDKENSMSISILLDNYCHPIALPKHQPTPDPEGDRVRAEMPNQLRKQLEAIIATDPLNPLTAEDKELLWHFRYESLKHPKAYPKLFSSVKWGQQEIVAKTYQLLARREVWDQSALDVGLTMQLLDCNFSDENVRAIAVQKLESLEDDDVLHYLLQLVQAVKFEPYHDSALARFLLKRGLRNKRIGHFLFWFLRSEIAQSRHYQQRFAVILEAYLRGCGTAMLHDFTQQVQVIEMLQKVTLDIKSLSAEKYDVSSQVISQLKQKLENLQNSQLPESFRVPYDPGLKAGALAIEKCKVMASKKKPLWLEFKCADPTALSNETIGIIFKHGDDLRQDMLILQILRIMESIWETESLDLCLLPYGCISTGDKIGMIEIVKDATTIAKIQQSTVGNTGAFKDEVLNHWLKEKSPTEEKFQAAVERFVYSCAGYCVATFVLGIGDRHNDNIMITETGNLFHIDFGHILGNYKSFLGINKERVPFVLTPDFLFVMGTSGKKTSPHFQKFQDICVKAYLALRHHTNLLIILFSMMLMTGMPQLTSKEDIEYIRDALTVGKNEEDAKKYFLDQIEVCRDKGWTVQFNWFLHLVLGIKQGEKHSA
Sequence of PI3Kα (P42336 whole entry, species assumed): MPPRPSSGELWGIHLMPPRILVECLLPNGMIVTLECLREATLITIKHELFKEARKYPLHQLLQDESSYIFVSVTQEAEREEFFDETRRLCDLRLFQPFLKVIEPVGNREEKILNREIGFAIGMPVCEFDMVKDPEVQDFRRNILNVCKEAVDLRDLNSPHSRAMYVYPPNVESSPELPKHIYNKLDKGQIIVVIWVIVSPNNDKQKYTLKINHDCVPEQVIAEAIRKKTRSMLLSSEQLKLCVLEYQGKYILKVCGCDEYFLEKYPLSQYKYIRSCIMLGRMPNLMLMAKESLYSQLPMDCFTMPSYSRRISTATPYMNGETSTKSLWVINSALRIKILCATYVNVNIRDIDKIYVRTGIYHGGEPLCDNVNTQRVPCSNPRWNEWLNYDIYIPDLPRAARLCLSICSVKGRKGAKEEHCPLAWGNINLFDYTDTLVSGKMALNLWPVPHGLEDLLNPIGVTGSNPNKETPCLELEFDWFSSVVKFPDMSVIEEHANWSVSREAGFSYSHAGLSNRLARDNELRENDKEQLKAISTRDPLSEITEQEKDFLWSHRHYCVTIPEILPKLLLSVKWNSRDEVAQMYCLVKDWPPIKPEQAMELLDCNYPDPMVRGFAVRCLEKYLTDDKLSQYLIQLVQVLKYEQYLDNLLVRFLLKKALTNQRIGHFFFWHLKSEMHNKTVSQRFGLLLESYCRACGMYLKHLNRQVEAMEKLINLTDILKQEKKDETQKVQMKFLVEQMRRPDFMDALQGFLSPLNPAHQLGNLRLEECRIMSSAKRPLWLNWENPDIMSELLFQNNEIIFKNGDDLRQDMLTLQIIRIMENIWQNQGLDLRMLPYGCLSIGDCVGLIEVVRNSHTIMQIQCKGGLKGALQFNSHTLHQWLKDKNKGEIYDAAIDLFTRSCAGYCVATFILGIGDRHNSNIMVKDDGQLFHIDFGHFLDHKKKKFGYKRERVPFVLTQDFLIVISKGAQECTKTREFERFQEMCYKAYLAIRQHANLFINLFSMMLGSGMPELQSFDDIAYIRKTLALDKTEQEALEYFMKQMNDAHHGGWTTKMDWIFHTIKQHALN
Sequence of PI3Kα (P27986 whole entry partner, species assumed): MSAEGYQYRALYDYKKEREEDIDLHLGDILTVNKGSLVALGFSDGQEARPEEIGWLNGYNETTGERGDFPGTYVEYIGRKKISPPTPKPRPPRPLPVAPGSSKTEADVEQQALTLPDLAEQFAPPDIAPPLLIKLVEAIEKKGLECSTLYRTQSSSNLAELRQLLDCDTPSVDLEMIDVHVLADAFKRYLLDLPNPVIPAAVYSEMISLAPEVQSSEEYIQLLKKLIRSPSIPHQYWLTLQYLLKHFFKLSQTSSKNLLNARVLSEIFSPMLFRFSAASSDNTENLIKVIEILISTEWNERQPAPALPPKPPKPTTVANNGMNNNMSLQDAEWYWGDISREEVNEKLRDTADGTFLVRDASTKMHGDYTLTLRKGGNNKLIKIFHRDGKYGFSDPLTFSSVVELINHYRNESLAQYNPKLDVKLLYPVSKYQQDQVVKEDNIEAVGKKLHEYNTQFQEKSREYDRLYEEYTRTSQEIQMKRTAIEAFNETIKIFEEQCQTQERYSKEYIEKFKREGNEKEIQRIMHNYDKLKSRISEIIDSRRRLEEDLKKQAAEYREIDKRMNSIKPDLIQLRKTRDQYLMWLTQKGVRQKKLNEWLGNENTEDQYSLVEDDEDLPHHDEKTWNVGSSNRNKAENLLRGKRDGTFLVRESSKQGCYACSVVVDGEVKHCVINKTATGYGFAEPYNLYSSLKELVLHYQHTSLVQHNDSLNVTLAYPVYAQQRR

Compound | IC50 (PI3Kα) [nM] | IC50 (PI3Kγ) [nM] | IC50 (mTOR; [1]) [nM] | melting point | IC50 (mTOR) [nM]
CC(=O)c1ccc(-c2ccnc3c2c(/C=C2\Oc4cccc(O)c4C2=O)cn3C)cc1 [Compound 134, (2Z)-2-{[4-(4-acetylphenyl)-1-methyl-1H-pyrrolo[2,3-b]pyridin-3-yl]methylene}-4-hydroxy-1-benzofuran-3(2H)-one] | 55 | 89 | 3.8 | 250 to 253 °C | –
CN(C)C(=O)Nc1ccc(-c2ccnc3c2c(/C=C2\Oc4cccc(O)c4C2=O)cn3C)cc1 [Compound 140, 3-(4-{3-[(Z)-(4-hydroxy-3-oxo-1-benzofuran-2(3H)-ylidene)methyl]-1-methyl-1H-pyrrolo[2,3-b]pyridin-4-yl}phenyl)-1,1-dimethylurea] | 59 | 74 | 2 | 235 to 238 °C | –
CN(C)C(=O)c1ccccc1-c1ccnc2c1c(/C=C1\Oc3cccc(O)c3C1=O)cn2C [Compound 141, 2-{3-[(Z)-(4-hydroxy-3-oxo-1-benzofuran-2(3H)-ylidene)methyl]-1-methyl-1H-pyrrolo[2,3-b]pyridin-4-yl}-N,N-dimethylbenzamide] | 5900 | 1860 | 180 | 293 to 295 °C | –
Cn1cc(/C=C2\Oc3cccc(O)c3C2=O)c2c(-c3ccc(C(=O)N4CC5CCC(C4)O5)cc3)ccnc21 [Compound 144, (2Z)-4-hydroxy-2-({1-methyl-4-[4-(8-oxa-3-azabicyclo[3.2.1]oct-3-ylcarbonyl)phenyl]-1H-pyrrolo[2,3-b]pyridin-3-yl}methylidene)-1-benzofuran-3(2H)-one] | 57 | 77 | 0.6 | 296 to 298 °C | –
CN(C)C(=O)C1CCN(c2ccnc3c2c(/C=C2\Oc4cccc(O)c4C2=O)cn3C)CC1 [Compound 145, 1-{3-[(Z)-(4-hydroxy-3-oxo-1-benzofuran-2(3H)-ylidene)methyl]-1-methyl-1H-pyrrolo[2,3-b]pyridin-4-yl}-N,N-dimethylpiperidine-4-carboxamide] | 38 | 74 | 0.6 | 185 to 195 °C | –
Cn1cc(/C=C2\Oc3cccc(O)c3C2=O)c2c(N3C4CCC3COC4)ccnc21 [Compound 151, (2Z)-4-hydroxy-2-{[1-methyl-4-(3-oxa-8-azabicyclo[3.2.1]oct-8-yl)-1H-pyrrolo[2,3-b]pyridin-3-yl]methylidene}-1-benzofuran-3(2H)-one] | 19 | 49 | – | 284 to 291 °C | 2.1
CC(=O)Nc1ccc2c(c1)C(=O)/C(=C/c1cn(C)c3nccc(-c4ccccc4)c13)O2 [Compound 154, N-{(2Z)-2-[(1-methyl-4-phenyl-1H-pyrrolo[2,3-b]pyridin-3-yl)methylidene]-3-oxo-2,3-dihydro-1-benzofuran-5-yl}acetamide] | 1390 | 1070 | 69 | 332 to 335 °C | –
Cn1cc(/C=C2\Oc3ccc(NC(=O)C(F)(F)F)cc3C2=O)c2c(-c3ccccc3)ccnc21 [Compound 156, 2,2,2-trifluoro-N-{(2Z)-2-[(1-methyl-4-phenyl-1H-pyrrolo[2,3-b]pyridin-3-yl)methylidene]-3-oxo-2,3-dihydro-1-benzofuran-5-yl}acetamide] | 1940 | 6910 | 1650 | 295 to 302 °C | –
Cn1cc(/C=C2\Oc3cccc(O)c3C2=O)c2c(-c3ccc(N4CC5CCC(C4)O5)cc3)ccnc21 [Compound 157, (2Z)-4-hydroxy-2-({1-methyl-4-[4-(8-oxa-3-azabicyclo[3.2.1]oct-3-yl)phenyl]-1H-pyrrolo[2,3-b]pyridin-3-yl}methylidene)-1-benzofuran-3(2H)-one] | 74 | 78 | 9.4 | 252 to 260 °C (dec.) | –
CN(C)C(=O)Nc1ccc2c(c1)C(=O)/C(=C/c1cn(C)c3nccc(-c4ccccc4)c13)O2 [Compound 161, 1,1-dimethyl-3-{(2Z)-2-[(1-methyl-4-phenyl-1H-pyrrolo[2,3-b]pyridin-3-yl)methylidene]-3-oxo-2,3-dihydro-1-benzofuran-5-yl}urea] | 5500 | > 10000 | 397 | 275 to 280 °C | –
Cn1cc(/C=C2\Oc3ccc(NS(C)(=O)=O)cc3C2=O)c2c(-c3ccccc3)ccnc21 [Compound 162, N-{(2Z)-2-[(1-methyl-4-phenyl-1H-pyrrolo[2,3-b]pyridin-3-yl)methylidene]-3-oxo-2,3-dihydro-1-benzofuran-5-yl}methanesulfonamide] | 5900 | 7430 | > 4000 | 257 to 262 °C | –
Cn1cc(/C=C2\Oc3ccc(NC(=O)Nc4cccnc4)cc3C2=O)c2c(N3CC4CCC(C3)O4)ccnc21 [Compound 167, 1-[(2Z)-2-{[1-methyl-4-(8-oxa-3-azabicyclo[3.2.1]oct-3-yl)-1H-pyrrolo[2,3-b]pyridin-3-yl]methylidene}-3-oxo-2,3-dihydro-1-benzofuran-5-yl]-3-pyridin-3-ylurea] | 2080 | > 10000 | 14.3 | 226 to 230 °C | –

The next lines start with results.

IC50 (PI3Kα) [nM] | IC50 (PI3Kγ) [nM] | IC50 (mTOR; [1]) [nM] | melting point | Compound | IC50 (mTOR) [nM]
119 | 1270 | 19 | 260 °C | Cn1cc(/C=C2\Oc3cccc(O)c3C2=O)c2c(N3CCC(N)CC3)ccnc21 [Compound 139, (2Z)-2-{[4-(4-aminopiperidin-1-yl)-1-methyl-1H-pyrrolo[2,3-b]pyridin-3-yl]methylene}-4-hydroxy-1-benzofuran-3(2H)-one] | –
39 | 94 | 0.7 | 232 to 242 °C | Cn1cc(/C=C2\Oc3cccc(O)c3C2=O)c2c(N3CCC(C(=O)NCCO)CC3)ccnc21 [Compound 148, N-(2-hydroxyethyl)-1-{3-[(Z)-(4-hydroxy-3-oxo-1-benzofuran-2(3H)-ylidene)methyl]-1-methyl-1H-pyrrolo[2,3-b]pyridin-4-yl}piperidine-4-carboxamide] | –
63 | 50 | 1.4 | 358 to 361 °C | Cn1cc(/C=C2\Oc3cccc(O)c3C2=O)c2c(N3CCC(C(=O)N4CCOCC4)CC3)ccnc21 [Compound 150, (2Z)-4-hydroxy-2-({1-methyl-4-[4-(morpholin-4-ylcarbonyl)piperidin-1-yl]-1H-pyrrolo[2,3-b]pyridin-3-yl}methylidene)-1-benzofuran-3(2H)-one] | –
31 | 32 | 0.6 | 191 to 207 °C | Cn1cc(/C=C2\Oc3cccc(O)c3C2=O)c2c(N3CCC(C(=O)N4CCCC4)CC3)ccnc21 [Compound 152, (2Z)-4-hydroxy-2-({1-methyl-4-[4-(pyrrolidin-1-ylcarbonyl)piperidin-1-yl]-1H-pyrrolo[2,3-b]pyridin-3-yl}methylidene)-1-benzofuran-3(2H)-one] | –
150 | 306 | 14.5 | 275 to 285 °C (dec.) | CC(=O)Nc1ccc2c(c1)C(=O)/C(=C/c1cn(C)c3nccc(N4CC5CCC(C4)O5)c13)O2 [Compound 155, N-[(2Z)-2-{[1-methyl-4-(8-oxa-3-azabicyclo[3.2.1]oct-3-yl)-1H-pyrrolo[2,3-b]pyridin-3-yl]methylidene}-3-oxo-2,3-dihydro-1-benzofuran-5-yl]acetamide] | –
39 | 131 | 3.1 | 239 to 244 °C | CN1CCN(C(=O)C2CCN(c3ccnc4c3c(/C=C3\Oc5cccc(O)c5C3=O)cn4C)CC2)CC1 [Compound 164, (2Z)-4-hydroxy-2-[(1-methyl-4-{4-[(4-methylpiperazin-1-yl)carbonyl]piperidin-1-yl}-1H-pyrrolo[2,3-b]pyridin-3-yl)methylidene]-1-benzofuran-3(2H)-one] | –
420 | 487 | 6.7 | 203 °C | CNC(=O)Nc1ccc2c(c1)C(=O)/C(=C/c1cn(C)c3nccc(N4CCC(C(=O)N(C)C)CC4)c13)O2 [Compound 168, N,N-dimethyl-1-{1-methyl-3-[(Z)-{5-[(methylcarbamoyl)amino]-3-oxo-1-benzofuran-2(3H)-ylidene}methyl]-1H-pyrrolo[2,3-b]pyridin-4-yl}piperidine-4-carboxamide] | –
> 10000 | 1170 | 11.5 | 241 °C | CN(C)C(=O)C1CCN(c2ccnc3c2c(/C=C2\Oc4ccc(Br)cc4C2=O)cn3C)CC1 [Compound 169, 1-{3-[(Z)-(5-bromo-3-oxo-1-benzofuran-2(3H)-ylidene)methyl]-1-methyl-1H-pyrrolo[2,3-b]pyridin-4-yl}-N,N-dimethylpiperidine-4-carboxamide] | –
3110 | > 10000 | 91.5 | 128 °C | CN(C)C(=O)C1CCN(c2ccnc3c2c(/C=C2\Oc4ccc(NC(=O)N5CCOCC5)cc4C2=O)cn3C)CC1 [Compound 170, N-[(2Z)-2-({4-[4-(dimethylcarbamoyl)piperidin-1-yl]-1-methyl-1H-pyrrolo[2,3-b]pyridin-3-yl}methylidene)-3-oxo-2,3-dihydro-1-benzofuran-5-yl]morpholine-4-carboxamide] | –
> 10000 | > 10000 | 18 | 246 to 251 °C | Cn1cc(/C=C2\Oc3ccc(NC(=O)Nc4cccnc4)cc3C2=O)c2c(N3CCC(C(=O)N4CCOCC4)CC3)ccnc21 [Compound 173, 1-[(2Z)-2-({1-methyl-4-[4-(morpholin-4-ylcarbonyl)piperidin-1-yl]-1H-pyrrolo[2,3-b]pyridin-3-yl}methylidene)-3-oxo-2,3-dihydro-1-benzofuran-5-yl]-3-pyridin-3-ylurea] | –
